Patent publication US8048895B2, “Kappa opioid receptor ligands” (priority 2008, dated 2011)

Assays:
Format in all cases: biochemical
[1] = target: T1, cloned human κ opioid receptor (Homo sapiens, UniProt P41145); experiment: Inhibition of U69,593-stimulated [35S]GTPγS binding
T1 construct: expressed in transfected cells
Description: (§1) Measures of opioid receptor antagonism and specificity were obtained by monitoring the ability of selected test compounds to inhibit stimulation of [^35S]GTPγS binding produced by the selective agonists (D-Ala^2, MePhe^4, Gly-ol^5)enkephalin (DAMGO, mu receptor), cyclo[D-Pen^2, D-Pen^5]enkephalin (DPDPE, delta) and 5,7,8-(−)-N-methyl-N-[7-(1-pyrrolidinyl)-1-oxaspiro[4,5]dec-8-yl]benzeneacetamide (U69,593, kappa) in cloned human receptors, Table 1.

[2] = target: T2, cloned human μ opioid receptor (Homo sapiens, UniProt P35372); experiment: Inhibition of DAMGO-stimulated [35S]GTPγS binding
T2 construct: expressed in transfected cells
Description: as §1

[3] = target: T3, cloned human δ opioid receptor (Homo sapiens, UniProt P41143); experiment: Inhibition of DPDPE-stimulated [35S]GTPγS binding; settings: read-out: δ, DPDPE Ke
T3 construct: expressed in transfected cells
Description: as §1

T1 sequence (P41145 whole entry): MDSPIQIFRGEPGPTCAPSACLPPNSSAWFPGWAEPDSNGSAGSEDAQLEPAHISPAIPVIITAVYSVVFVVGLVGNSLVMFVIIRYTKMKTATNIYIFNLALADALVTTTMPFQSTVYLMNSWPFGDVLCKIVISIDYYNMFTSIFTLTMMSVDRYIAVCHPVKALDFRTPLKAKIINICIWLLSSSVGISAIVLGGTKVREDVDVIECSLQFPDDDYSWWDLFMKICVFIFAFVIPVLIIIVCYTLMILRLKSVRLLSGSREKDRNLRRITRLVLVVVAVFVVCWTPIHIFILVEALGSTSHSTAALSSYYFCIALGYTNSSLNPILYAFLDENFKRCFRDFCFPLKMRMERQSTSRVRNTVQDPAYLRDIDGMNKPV
T2 sequence (P35372 whole entry): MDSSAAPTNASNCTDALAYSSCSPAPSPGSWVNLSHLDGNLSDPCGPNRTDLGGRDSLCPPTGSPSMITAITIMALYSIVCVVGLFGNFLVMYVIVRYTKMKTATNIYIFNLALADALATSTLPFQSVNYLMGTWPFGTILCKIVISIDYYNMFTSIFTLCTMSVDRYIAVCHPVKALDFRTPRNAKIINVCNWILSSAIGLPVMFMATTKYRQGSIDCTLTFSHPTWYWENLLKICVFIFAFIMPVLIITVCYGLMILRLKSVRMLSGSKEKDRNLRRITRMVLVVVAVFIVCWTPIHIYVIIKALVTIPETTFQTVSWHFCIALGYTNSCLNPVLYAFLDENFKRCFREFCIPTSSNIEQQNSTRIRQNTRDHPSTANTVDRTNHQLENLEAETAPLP
T3 sequence (P41143 whole entry): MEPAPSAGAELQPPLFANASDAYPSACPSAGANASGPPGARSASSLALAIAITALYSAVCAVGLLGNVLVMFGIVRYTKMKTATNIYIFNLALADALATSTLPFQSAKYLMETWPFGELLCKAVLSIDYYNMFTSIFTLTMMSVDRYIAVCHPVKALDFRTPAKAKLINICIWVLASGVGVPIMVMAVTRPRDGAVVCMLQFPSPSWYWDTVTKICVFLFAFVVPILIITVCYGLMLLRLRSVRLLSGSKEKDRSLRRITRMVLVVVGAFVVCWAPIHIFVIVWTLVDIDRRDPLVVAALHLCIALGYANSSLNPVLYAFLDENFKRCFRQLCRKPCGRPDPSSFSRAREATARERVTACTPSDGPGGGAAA

## CC(C)[C@@H](CN1CC[C@@](C)(c2cccc(O)c2)[C@@H](C)C1)NC(=O)[C@@]1(C)Cc2ccc(O)cc2CN1 [RTI-5989-240, (3R)-7-Hydroxy-N-[(1S)-1-{[(3R,4R)-4-(3-hydroxyphenyl)-3,4-dimethylpiperidin-1-yl]methyl}-2-methylpropyl]-3-methyl-1,2,3,4-tetrahydroisoquinoline-3-carboxamide]
[1]
  Kb: 0.03 nM
[1]; [35S]GTPγS in vitro functional assay
  potency for the kappa opioid receptor (in words): high potency
[1]; functional assay
  selectivity for the kappa opioid receptor relative to mu and delta (in words): highly selective
[1]; inhibition of U69,593-stimulated [35S]GTPγS binding, cloned human κ receptor
  κ, U69,593 Ke: 0.03 nM
[1]; ratio of Ke values, δ over κ
  δ/κ: 28,000
[1]; ratio of Ke values, μ over κ
  μ/κ: 120
[2]
  Kb: 3.6 nM
[2]; inhibition of DAMGO-stimulated [35S]GTPγS binding, cloned human μ receptor
  μ, DAMGO Ke: 3.6 nM
[3]
  Kb: 840 nM
